Assay results: the supplement of paper PMC10307832

Columns and labels:
Assay in all cases: relative viability (nuclei count vs DMSO), 5 days (fraction); higher = more cells survive
KN-93 + Vorinostat = compound: CN(C/C=C/C1=CC=C(C=C1)Cl)CC2=CC=CC=C2N(CCO)S(=O)(=O)C3=CC=C(C=C3)OC [KN-93] + O=C(CCCCCCC(=O)Nc1ccccc1)NO [Vorinostat] (partner 1 µM)
Summary of the method: (§1)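 Relative viability equals treated-well nuclei counts divided by vehicle-well nuclei counts. Counts came from 4× images of lung cancer cell lines grown in 1536-well plates for 5 days after pin-tool dosing on the day after seeding. Dosing used one drug alone or a fixed anchor-drug dose plus five library-drug doses (not always all listed) in √10 steps, and values are medians of duplicate plates.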

KN-93 + Tozasertib = compound: CN(C/C=C/C1=CC=C(C=C1)Cl)CC2=CC=CC=C2N(CCO)S(=O)(=O)C3=CC=C(C=C3)OC [KN-93] + Cc1cc(Nc2cc(N3CCN(C)CC3)nc(Sc3ccc(NC(=O)C4CC4)cc3)n2)n[nH]1 [Tozasertib] (partner 0.1 µM)
Summary of the method: as §1

KN-93 + Alpelisib = compound: CN(C/C=C/C1=CC=C(C=C1)Cl)CC2=CC=CC=C2N(CCO)S(=O)(=O)C3=CC=C(C=C3)OC [KN-93] + Cc1nc(NC(=O)N2CCC[C@H]2C(N)=O)sc1-c1ccnc(C(C)(C)C(F)(F)F)c1 [Alpelisib] (partner 2 µM)
Summary of the method: as §1

KN-93 + Phenformin = compound: CN(C/C=C/C1=CC=C(C=C1)Cl)CC2=CC=CC=C2N(CCO)S(=O)(=O)C3=CC=C(C=C3)OC [KN-93] + N=C(N)NC(=N)NCCc1ccccc1 [Phenformin] (partner 250 µM)
Summary of the method: as §1

KN-93 + Pictilisib = compound: CN(C/C=C/C1=CC=C(C=C1)Cl)CC2=CC=CC=C2N(CCO)S(=O)(=O)C3=CC=C(C=C3)OC [KN-93] + CS(=O)(=O)N1CCN(Cc2cc3nc(-c4cccc5[nH]ncc45)nc(N4CCOCC4)c3s2)CC1 [Pictilisib] (partner 1 µM)
Summary of the method: as §1

Cell Line	relative viability (KN-93 + Vorinostat; first compound 0.08 µM)	relative viability (KN-93 + Vorinostat; first compound 0.253 µM)	relative viability (KN-93 + Vorinostat; first compound 2.53 µM)	relative viability (KN-93 + Vorinostat; first compound 8 µM)	relative viability (KN-93 + Tozasertib; first compound 0.08 µM)	relative viability (KN-93 + Tozasertib; first compound 0.253 µM)	relative viability (KN-93 + Tozasertib; first compound 2.53 µM)	relative viability (KN-93 + Tozasertib; first compound 8 µM)	relative viability (KN-93 + Alpelisib; first compound 0.08 µM)	relative viability (KN-93 + Alpelisib; first compound 0.253 µM)	relative viability (KN-93 + Alpelisib; first compound 2.53 µM)	relative viability (KN-93 + Alpelisib; first compound 8 µM)	relative viability (KN-93 + Phenformin; first compound 0.08 µM)	relative viability (KN-93 + Phenformin; first compound 0.253 µM)	relative viability (KN-93 + Phenformin; first compound 2.53 µM)	relative viability (KN-93 + Phenformin; first compound 8 µM)	relative viability (KN-93 + Pictilisib; first compound 0.08 µM)	relative viability (KN-93 + Pictilisib; first compound 0.253 µM)	relative viability (KN-93 + Pictilisib; first compound 2.53 µM)	relative viability (KN-93 + Pictilisib; first compound 8 µM)
201T	0.875	0.958	0.873	0.698	0.916	0.99	0.819	0.508	1.17	0.966	1.01	0.935	0.47	0.424	0.51	0.452	0.756	0.583	0.672	0.63
A-427	0.856	0.862	0.868	0.59	0.206	0.193	0.172	0.165	1.07	1.18	1.08	0.975	0.322	0.35	0.278	0.229	0.732	0.69	0.635	0.512
ABC-1	0.92	1.66	0.586	0.427	0.158	0.157	0.217	0.192	0.893	1.27	1.13	0.715	0.248	0.242	0.248	0.216	0.638	0.721	0.738	0.264
BEN	0.637	0.596	0.599	0.487	0.525	0.529	0.489	0.531		1.37	1.06	0.806	0.239	0.26	0.295	0.275		0.549	0.618	0.381
CAL-12T	0.833	1.01	0.783	0.687	0.299	0.354	0.324	0.176	0.859	1.44	1.57	1.06	0.557	0.474	0.563	0.407	0.498	0.367	0.605	0.326
COR-L23	0.448	0.46	0.509	0.402	0.185	0.205	0.177	0.156	0.743	1.01	0.745	0.601	0.432	0.569	0.583	0.387	0.796	0.892	0.997	0.414
COR-L 105	0.632	0.824	0.551	0.836	0.399	0.325	0.329	0.282	0.866	0.991	0.918	0.74	0.559	0.443	0.517	0.366	0.413	0.354	0.388	0.29
ChaGo-K-1	0.755	0.896	0.822	0.582	0.234	0.232	0.243	0.2					0.456	0.56	0.466	0.453	1.27	0.851	0.718	0.454
